Results as given in PMC5469522.

Test: Non-covalent ring closure: intramolecular phenol OH...acceptor H-bond (folding of AD 2-mers; acceptor is phosphine oxide, pyridine or pyridine N-oxide). EMf = Kfold/K(A.D); Kfold inferred from NMR dilution Kobs(AD.AD) versus Kobs(AA.DD)
Details: the molecule shown is the open-chain precursor, toluene-d8 (C7-PO in CDCl3), 25.0 °C

## CCCCP(=O)(CCCC)c1cccc(C#Cc2cc(C#Cc3cccc(O)c3)cc(OCC[C@@H](C)CCC=C(C)C)c2)c1 [C7-PO (44), CDCl3]
17-membered ring
  ring closure, effective molarity: 0 mM

## CCCCC(CC)COc1ccc(N(Cc2ccc(O)cc2)Cc2cc([N+](=O)[O-])ccc2OCC(CC)CCCC)cc1CN(Cc1cc[n+]([O-])cc1)c1ccc(OCC(CC)CCCC)c(C2OCCO2)c1 (stereo not shown) [C8-NO (13)]
19-membered ring
  ring closure, effective molarity: 0 mM

## CCCCC(CC)COc1ccc(N(Cc2ccc(O)cc2)Cc2cc([N+](=O)[O-])ccc2OCC(CC)CCCC)cc1CN(Cc1ccc(OCP(=O)(C(C)(C)C)C(C)(C)C)cc1)c1ccc(OCC(CC)CCCC)c(C2OCCO2)c1 (stereo not shown) [C8-PO (16)]
22-membered ring
  ring closure, effective molarity: 7 mM

## CCCCC(CC)COc1cc(CN(Cc2ccccc2OC)c2ccc(OCP(=O)(C(C)(C)C)C(C)(C)C)cc2)c(OCC(CC)CCCC)cc1CN(Cc1ccccc1OC)c1ccc(O)cc1 (stereo not shown) [N8-PO (26)]
22-membered ring
  ring closure, effective molarity: 3 mM

## CCCCC(CC)COc1cc(CN(Cc2ccccc2OC)c2ccc(O)cc2)cc(CN(Cc2ccccc2OC)c2ccc(OCP(=O)(C(C)(C)C)C(C)(C)C)cc2)c1 (stereo not shown) [N7-PO (29)]
21-membered ring
  ring closure, effective molarity: 15 mM

## CCCCC(CC)COc1ccc(N(Cc2ccc(O)cc2)Cc2cc([N+](=O)[O-])ccc2OCC(CC)CCCC)cc1CN(Cc1ccncc1)c1ccc(OCC(CC)CCCC)c(C2OCCO2)c1 (stereo not shown) [C8-N (21)]
18-membered ring
  ring closure, effective molarity: 0 mM

## CCCCP(=O)(CCCC)c1ccc(C[C@@H](CCSCC[C@H](CCSC(C)=O)Cc2ccc(O)cc2)CCSC(C)(C)C)cc1 [C9-PO (33)]
21-membered ring
  ring closure, effective molarity: 7 mM
